Results taken from patent publication US9242943B2, “1,4 oxazines as BACE1 and/or BACE2 inhibitors” (SIENA BIOTECH S.P.A., priority 2011, dated 2016).

Tests used:
CYP3A4 = CYP3A4 (Homo sapiens (Human), UniProt P08684); test: CYP inhibition assay, human liver microsomes, midazolam 1' hydroxylase; type: in vitro ADME; conditions: pooled human liver microsomes, midazolam substrate; read-out: CYP IC50 3A4
Experimental: (§1) Inhibition of cytochromes P450 (CYPs) 2C9, 2D6 and 3A4 was assessed using human liver microsomes and CYP-selective substrate metabolism reactions. 50 μl incubations were made up containing (finally) 0.2 mg/ml pooled human liver microsomes, 5 μM substrate (diclofenac for CYP2C9 [4′ hydroxylase], dextromethorphan for CYP2D6 [O-demethylase] or midazolam for CYP3A4 [1′ hydroxylase]), 0.25 μl, DMSO containing test inhibitor and NADPH regenerating system. Test inhibitor concentrations of 50, 16.7, 5.6, 1.9, 0.6 and 0.2 μM were assessed in singlicate. Incubations were prewarmed to 37° C. for 10 minutes before initiation by addition of NADPH regenerating system. Incubations were quenched after 5 minutes (20 minutes for dextromethorphan) by addition of 50 μl cold acetonitrile containing 20 ng/ml 4-OH-diclofenac-13C6, 20 ng/mL dextrorphan-D3 and 20 ng/mL 1-OH-midazolam-D4. Quenched incubates were stored at −20° C. for at least 1 hour before centrifugation (20,000×g, 20 minutes). Supernatants were removed and diluted 1:1 with water prior to analysis using a RapidFire sample injector system and API4000 mass spectrometer. Peak areas for substrate, metabolite and stable-labelled metabolite standard were determined using MS/MS. […] The percentage of (DMSO) control activity was calculated for each incubate and IC50 values estimated by non-linear regression. […]

CYP2C9 = CYP2C9 (Homo sapiens (Human), UniProt P11712); test: CYP inhibition assay, human liver microsomes, diclofenac 4' hydroxylase; type: in vitro ADME; conditions: pooled human liver microsomes, diclofenac substrate; read-out: CYP IC50 2C9
CYP2C9, sequence (P11712 whole entry): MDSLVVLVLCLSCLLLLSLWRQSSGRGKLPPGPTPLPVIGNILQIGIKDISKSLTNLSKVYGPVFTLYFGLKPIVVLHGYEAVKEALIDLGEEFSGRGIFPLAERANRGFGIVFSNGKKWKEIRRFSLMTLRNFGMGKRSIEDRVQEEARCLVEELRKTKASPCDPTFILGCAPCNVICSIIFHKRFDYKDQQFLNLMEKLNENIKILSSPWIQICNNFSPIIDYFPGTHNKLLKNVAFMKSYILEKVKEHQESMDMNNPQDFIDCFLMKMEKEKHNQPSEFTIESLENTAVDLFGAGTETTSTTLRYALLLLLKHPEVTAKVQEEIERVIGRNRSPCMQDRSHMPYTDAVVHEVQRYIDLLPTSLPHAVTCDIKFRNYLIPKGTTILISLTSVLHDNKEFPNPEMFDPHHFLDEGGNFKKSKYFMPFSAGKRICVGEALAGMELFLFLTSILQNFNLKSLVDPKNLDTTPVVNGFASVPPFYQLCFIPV
Experimental: as §1

CYP2D6 = CYP2D6 (Homo sapiens (Human), UniProt P10635); test: CYP inhibition assay, human liver microsomes, dextromethorphan O-demethylase; type: in vitro ADME; conditions: pooled human liver microsomes, dextromethorphan substrate; read-out: CYP IC50 2D6
CYP2D6, sequence (P10635 whole entry): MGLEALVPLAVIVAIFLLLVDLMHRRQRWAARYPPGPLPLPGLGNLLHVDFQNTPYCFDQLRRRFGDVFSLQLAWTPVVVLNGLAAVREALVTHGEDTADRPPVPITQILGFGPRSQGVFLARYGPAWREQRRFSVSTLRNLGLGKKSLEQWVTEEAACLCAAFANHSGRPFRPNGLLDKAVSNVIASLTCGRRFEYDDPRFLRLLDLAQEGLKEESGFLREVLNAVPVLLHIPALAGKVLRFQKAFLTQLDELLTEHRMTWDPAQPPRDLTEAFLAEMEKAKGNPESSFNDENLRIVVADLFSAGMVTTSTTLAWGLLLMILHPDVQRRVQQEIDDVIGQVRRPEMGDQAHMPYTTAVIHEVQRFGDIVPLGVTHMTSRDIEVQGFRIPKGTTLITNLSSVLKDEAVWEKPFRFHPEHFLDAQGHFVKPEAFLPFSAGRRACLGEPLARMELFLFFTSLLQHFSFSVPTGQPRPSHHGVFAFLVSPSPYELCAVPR
Experimental: as §1

BACE2 = BACE2 (Rattus norvegicus (Rat), UniProt Q6IE75); test: Assay for BACE inhibition by measuring cellular TMEM27 cleavage (INS-TMEM27 cells, ELISA); type: cell-based; conditions: INS-TMEM27 (INS1e-derived) cells; shed TMEM27 in supernatant; read-out: BACE2 cell act. IC50
BACE2, sequence (Q6IE75 63-514): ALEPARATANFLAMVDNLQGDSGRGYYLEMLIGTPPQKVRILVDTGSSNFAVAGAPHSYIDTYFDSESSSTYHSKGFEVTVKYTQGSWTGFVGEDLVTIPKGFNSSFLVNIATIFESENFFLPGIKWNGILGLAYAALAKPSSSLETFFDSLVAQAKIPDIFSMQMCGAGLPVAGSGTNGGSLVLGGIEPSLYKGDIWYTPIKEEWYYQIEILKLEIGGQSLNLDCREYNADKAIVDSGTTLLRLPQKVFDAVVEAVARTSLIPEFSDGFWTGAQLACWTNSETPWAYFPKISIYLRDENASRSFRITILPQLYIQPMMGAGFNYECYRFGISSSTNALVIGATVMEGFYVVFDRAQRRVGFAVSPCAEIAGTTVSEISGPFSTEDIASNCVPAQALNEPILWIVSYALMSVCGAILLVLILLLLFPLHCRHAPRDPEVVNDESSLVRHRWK
From the text: Assay for BACE Inhibition by Measuring Cellular TMEM27 Cleavage:
The assay uses the principle of inhibition of human TMEM27 cleavage by endogenous cellular BACE2 in the Ins1e rat cell line and shedding from the cell surface into the culture medium, followed by detection in an ELISA assay. Inhibition of BACE2 prevents the cleavage and shedding in a dose-dependent manner
The stable cell line “INS-TMEM27” represents an INS1e-derived cell line with inducible expression (using the TetOn system) of full-length hTMEM27 in a doxycycline-dependent manner. The cells are cultured throughout the experiment in RPMI1640 +Glutamax (Invitrogen) Penicillin/Streptomycin, 10% Fetal bovine serum, […], […], 100 micrograms/ml G418 and 100 microgram/ml hygromycin and are grown inadherent culture at 37° C. in a standard CO2 cell culture incubator.
INS-TMEM27 cells are seeded in 96-well plates. After 2 days in culture, BACE2 inhibitor is added in a range of concentrations as required by the assay and after a further two hours, doxycycline is added to a final concentration of 500 ng/ml. The cells are incubated for a further 46 hours and the supernatant harvested for detection of shed TMEM27.
An ELISA assay (using a pair of mouse anti-human-TMEM27 antibodies, raised against the extracellular domain of TMEM27) is used for detection of TMEM27 in the culture medium. An EC50 for BACE2 inhibition is calculated using the ELISA readout for each inhibitor concentration with standard curve-fitting software such as XLFit for the Excel spreadsheet program.

BACE1 = BACE1 (Homo sapiens (Human), UniProt P56817); test: Cellular Aβ-lowering assay (Aβ40 ELISA, HEK293 cells expressing human APP695); type: cell-based; conditions: HEK293 cells stably transfected with human APP695; 18-20 hrs incubation; Aβ40 in supernatant; read-out: BACE1 cell act. Aβ40 IC50
BACE1, sequence (P56817 46-501): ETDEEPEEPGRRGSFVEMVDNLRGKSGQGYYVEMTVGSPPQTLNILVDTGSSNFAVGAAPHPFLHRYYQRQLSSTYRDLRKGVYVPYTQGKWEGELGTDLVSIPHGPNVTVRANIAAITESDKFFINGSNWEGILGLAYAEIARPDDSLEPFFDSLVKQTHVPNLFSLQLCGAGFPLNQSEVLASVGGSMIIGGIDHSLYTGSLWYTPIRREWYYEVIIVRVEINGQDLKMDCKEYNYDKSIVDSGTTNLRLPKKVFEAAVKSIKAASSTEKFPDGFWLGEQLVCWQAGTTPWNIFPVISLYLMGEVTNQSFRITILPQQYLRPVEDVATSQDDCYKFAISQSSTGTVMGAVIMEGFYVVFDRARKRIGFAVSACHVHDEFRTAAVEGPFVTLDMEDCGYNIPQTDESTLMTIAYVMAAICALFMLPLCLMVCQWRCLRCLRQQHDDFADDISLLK
Experimental: Cellular Aβ-Lowering Assay:
Human HEK293 cells which are stably transfected with a vector expressing a cDNA of the human APP wt gene (APP695) were used to assess the potency of the compounds in a cellular assay. The cells were seeded in 96-well microtiter plates in cell culture medium (Iscove, plus 10% (v/v) fetal bovine serum, glutamine, penicillin/streptomycin) to about 80% confluence and the compounds were added at a 10× concentration in 1/10 volume of medium without FCS containing 8% DMSO (final concentration of DMSO was kept at 0.8% v/v). After 18-20 hrs incubation at 37° C. and 5% CO2 in a humidified incubator the culture supernatant was harvested for the determination of […] concentrations. 96well ELISA plates (e.g., Nunc MaxiSorb) were coated with monoclonal antibody which specifically recognize the C-terminal end of […] (Brockhaus et al., NeuroReport 9, 1481-1486; 1998). After blocking of non-specific binding sites with e.g. 1% BSA and washing, the culture supernatants were added in suitable dilutions together with a horseradish peroxidase-coupled Aβ detection antibody (e.g., antibody 4G8, Senetek, Maryland Heights, Mo.) and incubated for 5 to 7 hrs. Subsequently the wells of the microtiter plate were washed extensively with Tris-buffered saline containing 0.05% Tween 20 and the assay was developed with tetramethylbenzidine/H2O2 in citric acid buffer. After stopping the reaction with one volume 1 N H2SO4 the reaction was measured in an ELISA reader at 450 nm wavelength. The concentrations of Aβ in the culture supernatants were calculated from a standard curve obtained with known amounts of pure Aβ peptide.

[1] = molecular target: recombinant human cathepsin E (Homo sapiens (Human), UniProt P14091); test: Cathepsin E fluorescent substrate kinetic assay (MR121); type: biochemical; conditions: pH 4.5, substrate MR121-CKLVFFAEDW
recombinant human cathepsin E, sequence (P14091 54-396): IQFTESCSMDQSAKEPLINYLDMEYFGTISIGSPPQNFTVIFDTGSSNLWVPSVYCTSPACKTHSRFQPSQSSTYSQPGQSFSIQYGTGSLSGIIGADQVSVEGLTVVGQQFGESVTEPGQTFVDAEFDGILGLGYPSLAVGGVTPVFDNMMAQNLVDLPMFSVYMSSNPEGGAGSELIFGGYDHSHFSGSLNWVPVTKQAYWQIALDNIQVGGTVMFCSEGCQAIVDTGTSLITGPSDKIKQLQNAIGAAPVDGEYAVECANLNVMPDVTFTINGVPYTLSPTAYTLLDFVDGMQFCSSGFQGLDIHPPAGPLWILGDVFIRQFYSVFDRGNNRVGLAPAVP
From the text: (§2) Cathepsin D and Cathepsin E Fluorescent Substrate Kinetic Assays General Assay Principle
(§3) The MR121 fluorescence assays described below are based on the fact that MR121 forms a non-fluorescent ground state complex with tryptophan. In solution this formation occurs at millimolar concentrations of tryptophan. The mechanism can be used to design a generic biochemical assay for proteases. A substrate peptide is labeled at the N-terminus with tryptophan and at the C-terminus with the fluorophore MR121 (for cathepsin D the 10 amino acid peptide WTSVLMAAPC-MR121 was used; for cathepsin E, MR121-CKLVFFAEDW was used). In absence of protease activity, the substrates remain intact and the MR121 fluorescence is reduced by the high local Trp-concentration. If the substrates are cleaved by the enzymes the MR121 fluorescence is recovered.
(§4) The fluorescent substrate cathepsin D and cathepsin E kinetic assays were performed at room temperature in 384-well microtiter plates (black with clear flat bottom, non binding surface plates from Corning) in a final volume of 51 μl. […] The enzymatic reaction was followed in a plate: vision reader (Perkin Elmer) (excitation wavelength: 630 nm; emission: 695 nm) for at least 30 minutes in a kinetic measurement detecting an increase of MR121 fluorescence during the reaction time. […]

[2] = molecular target: cathepsin D (from human liver) (Homo sapiens (Human), UniProt P07339); test: Cathepsin D fluorescent substrate kinetic assay (MR121); type: biochemical; conditions: pH 5.5, substrate WTSVLMAAPC-MR121
cathepsin D (from human liver), sequence (P07339 169-412): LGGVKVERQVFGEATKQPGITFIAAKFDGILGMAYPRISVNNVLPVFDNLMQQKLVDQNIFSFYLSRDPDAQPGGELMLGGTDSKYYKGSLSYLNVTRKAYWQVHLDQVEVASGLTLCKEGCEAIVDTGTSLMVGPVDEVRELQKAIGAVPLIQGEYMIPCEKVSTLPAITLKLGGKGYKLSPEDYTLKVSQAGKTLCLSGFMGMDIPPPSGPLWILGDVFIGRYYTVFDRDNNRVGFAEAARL
cathepsin D (from human liver), sequence (P07339 65-162): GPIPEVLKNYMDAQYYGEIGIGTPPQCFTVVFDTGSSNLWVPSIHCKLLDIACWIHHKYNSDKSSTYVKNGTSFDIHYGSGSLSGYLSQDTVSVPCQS
From the text: as §2, §3, §4

CYP3A4, sequence (P08684 whole entry): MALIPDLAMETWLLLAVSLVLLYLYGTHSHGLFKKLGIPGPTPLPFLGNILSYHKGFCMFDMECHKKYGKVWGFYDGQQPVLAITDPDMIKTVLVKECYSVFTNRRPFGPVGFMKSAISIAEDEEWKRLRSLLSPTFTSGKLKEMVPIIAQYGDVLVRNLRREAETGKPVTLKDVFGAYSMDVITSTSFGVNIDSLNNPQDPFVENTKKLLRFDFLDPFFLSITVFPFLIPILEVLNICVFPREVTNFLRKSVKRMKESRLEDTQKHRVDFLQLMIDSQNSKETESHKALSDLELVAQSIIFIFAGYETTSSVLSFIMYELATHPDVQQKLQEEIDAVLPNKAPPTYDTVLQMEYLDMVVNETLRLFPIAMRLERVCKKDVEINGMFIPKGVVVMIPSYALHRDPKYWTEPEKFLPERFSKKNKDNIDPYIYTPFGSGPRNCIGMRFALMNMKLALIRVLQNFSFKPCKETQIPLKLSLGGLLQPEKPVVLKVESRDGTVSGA

SMILES | IC50 (CYP3A4) [µM] | IC50 (CYP2C9) [µM] | IC50 (CYP2D6) [µM] | IC50 (BACE2) [µM] | IC50 (BACE1) [µM] | IC50 [1] [µM] | IC50 [2] [µM]
C[C@@]1(c2cc(Nc3cc(Cl)cc4cc(Cl)cnc34)ccc2F)COCC(N)=N1 [Example 27, [3-((R)-5-Amino-3-methyl-3,6-dihydro-2H-[1,4]oxazin-3-yl)-4-fluoro-phenyl]-(3,6-dichloro-quinolin-8-yl)-amine] | 33 | > 50 | 4.5 | 0.558 | 0.66 |  | 
C[C@@]1(c2cc(Nc3cccc4cc(OC(F)F)cnc34)ccc2F)COCC(N)=N1 [Example 29, [3-((R)-5-Amino-3-methyl-3,6-dihydro-2H-[1,4]oxazin-3-yl)-4-fluoro-phenyl]-(3-difluoromethoxy-quinolin-8-yl)-amine] |  |  |  | 2.3 | 0.27 | 17.6 | 21.1
C[C@@]1(c2cc(Nc3ccon3)ccc2F)COCC(N)=N1 [Example 33, (R)-5-[2-Fluoro-5-(isoxazol-3-ylamino)-phenyl]-5-methyl-5,6-dihydro-2H-[1,4]oxazin-3-ylamine] |  |  |  | 1.21 | 0.58 |  | 
Cn1nc(Nc2ccc(F)c([C@@]3(C)COCC(N)=N3)c2)c2ccc(Cl)cc21 [Example 34, (S)-5-(5-(6-chloro-1-methyl-1H-indazol-3-ylamino)-2-fluorophenyl)-5-methyl-5,6-dihydro-2H-1,4-oxazin-3-amine] | 25 | 6.7 | 2 | 1.48 | 1.04 |  | 
C[C@]1(c2cc(NC3CCc4cc(Cl)ccc43)ccc2F)COCC(N)=N1 (stereo partly drawn) [Example 35, (S)-5-[5-(5-Chloro-indan-1-ylamino)-2-fluoro-phenyl]-5-methyl-5,6-dihydro-2H-[1,4]oxazin-3-ylamine] |  |  |  | 0.732 | 0.1 |  | 
CC1(c2cccc(Nc3cc(F)cc4cc(Cl)cnc34)c2)COCC(N)=N1 (stereo not shown) [Example 36, [3-(5-Amino-3-methyl-3,6-dihydro-2H-[1,4]oxazin-3-yl)-phenyl]-(3-chloro-6-fluoro-quinolin-8-yl)-amine] |  |  |  |  | 0.25 | 5 | 2.6
C[C@@]1(c2cc(NC3CCc4cc(Cl)cnc43)ccc2F)COCC(N)=N1 (stereo partly drawn) [Example 40, [3-((R)-5-Amino-3-methyl-3,6-dihydro-2H-[1,4]oxazin-3-yl)-4-fluoro-phenyl]-(3-chloro-6,7-dihydro-5H-[1]pyrindin-7-yl)-amine] |  |  |  | 1.1 | 0.32 |  | 
C[C@@]1(c2cc(Nc3ccccc3OCC(F)F)ccc2F)COCC(N)=N1 [Example 41, (R)-5-{5-[2-(2,2-Difluoro-ethoxy)-phenylamino]-2-fluoro-phenyl}-5-methyl-5,6-dihydro-2H-[1,4]oxazin-3-ylamine] |  |  |  | 0.01 | 2.14 |  | 
